In PubChem BioAssay AID652053 (Broad Institute, 2013) one finds AC40 data, which are given here for 87 molecules.

The experiment has as its system Huh7 psiCHECK-miR122 Renilla luciferase reporter, 48 h. Description: miR-122 inhibitors in Huh7 reporter cells, dose response, cell-based, Huh7 psiCHECK-miR122, Renilla luciferase, cherry-pick (AID 652053).
Take `CCOc1ccccc1CN(Cc1ccco1)S(=O)(=O)c1ccc(-n2cnnn2)c(OC)c1`: the AC40 is 4.36 µM.

Regarding `CCc1ccc(NS(=O)(=O)c2cc(OC)ccc2OC)cc1`, the AC40 was 0.866 µM.

In the case of `CCN(CC)c1ccc(S(=O)(=O)Nc2cc(Cl)ccc2Cl)cc1NC(=S)NC(=O)C1CCCC1`, the AC40 is 7.34 µM.

Take `C[C@H](CO)N1C[C@H](C)[C@@H](CN(C)CC2CCCCC2)Oc2c(NC(=O)C3CC3)cccc2C1=O`: the AC40 is 0.602 µM.

Regarding `Cc1noc(C)c1NC(=O)Nc1cccc2c1O[C@@H](CN(C)Cc1ccc(Cl)c(Cl)c1)[C@@H](C)CN([C@H](C)CO)C2=O`, the AC40 was 0.826 µM.

`COCC#Cc1ccc2c(c1)O[C@H](CN(C)S(=O)(=O)c1ccc(OC)cc1)[C@H](C)CN([C@H](C)CO)S2(=O)=O`: the AC40 is 5.8 µM.

With `O=C(NCc1ccccn1)c1cccc(NS(=O)(=O)c2cccc(F)c2)c1`, the AC40 is 5.83 µM.

Take `C[C@@H]1CN([C@@H](C)CO)C(=O)c2cc(N(C)C)ccc2O[C@H]1CN(C)Cc1ccc(C(=O)Nc2ccccc2N)cc1`: the AC40 is 9.78 µM.

On to `Cc1ccc(-c2n[nH]c(=O)c3ccccc23)cc1S(=O)(=O)NCCN1CCOCC1`, for which the AC40 is 15.4 µM.

In the case of `COc1c(S(=O)(=O)NCCCn2ccnc2)ccc(Cl)c1Cl`, the AC40 was 21.3 µM.

With `COc1ccc(N2CCN(C(=O)c3csc4ccccc34)CC2)cc1`, the AC40 was 15.9 µM.

Regarding `COc1ccc(S(=O)(=O)Nc2ccc(C(F)(F)F)cc2)cc1OC`, the AC40 was 2.12 µM.

For `O=S(=O)(NCC1CCCO1)c1ccc(Oc2ccccc2)cc1` (configuration not stated), the AC40 was 5.86 µM.

As for `CCOCC(=O)Nc1c(C(=O)N2CCN(c3ncccn3)CC2)oc2ccccc12`, the AC40 is 0.431 µM.

On to `CCCCn1nnnc1C(c1cccc(OC)c1OC)N1CCC2(CC1)C(=O)NCN2c1ccccc1` (configuration not stated), for which the AC40 is 2.44 µM.

For the molecule `FC(F)(F)c1cccc(NC(=S)NCCc2ccccn2)c1`, the AC40 is 2.88 µM.

For the molecule `COc1cccc(NS(=O)(=O)c2ccc3c(c2)N(C(C)=O)CCO3)c1`, the AC40 was 3.67 µM.

`Cc1ccc(C)c(S(=O)(=O)Nc2ccc(C(=O)N3CCOCC3)cc2)c1`: the AC40 is 7.88 µM.

As to `CC(C)C(=O)Nc1ccc2c(c1)C(=O)N(C)[C@H]1CC[C@H](CC(=O)NCc3cccc(F)c3)O[C@H]1CO2`, the AC40 was 17.7 µM.

Turning to `COc1ccc(S(=O)(=O)NC2CC3CCC2C3)cc1Cl` (configuration not stated), the AC40 was 4.66 µM.

With `CCOc1ccccc1N1CCN(C(=O)c2cc3ccccc3cc2OC)CC1`, the AC40 is 4.78 µM.

`CCOC(=O)c1c(NC(=O)c2ccccc2N(C)S(=O)(=O)c2ccccc2)sc2c1CCCC2`: the AC40 was 13.3 µM.

With `CCc1ccc(-c2cc(C)no2)cc1S(=O)(=O)NCCc1ccc(S(N)(=O)=O)cc1`, the AC40 was 4.08 µM.

Regarding `Cc1cc(C)cc(NS(=O)(=O)c2ccc3oc(=O)ccc3c2)c1`, the AC40 is 3.43 µM.

In the case of `CCOC(=O)c1ccc(NS(=O)(=O)c2cc(C)ccc2OC)cc1`, the AC40 is 8.03 µM.

For the molecule `COc1cc(C)c(C(C)C)cc1S(=O)(=O)N1CCN(C)CC1`, the AC40 was 7.96 µM.

With `O=C(NCCCn1ccnc1)c1cc(-c2ccccc2)on1`, the AC40 is 28.8 µM.

For `O=C(C1CCC1)N1CCc2cc(S(=O)(=O)NCc3ccco3)ccc21`, the AC40 was 12.3 µM.

`O=C(CN(C1CCCCC1)S(=O)(=O)c1ccc(F)cc1)Nc1ccc2c(c1)OCO2`: the AC40 is 6.36 µM.

Turning to `C[C@H](CO)N1C[C@H](C)[C@@H](CN(C)Cc2ccc(Oc3ccccc3)cc2)Oc2c(NC(=O)C3CCOCC3)cccc2C1=O`, the AC40 was 1.31 µM.

For `COc1cccc(N2CCN(C(=O)c3oc4ccccc4c3NC(=O)CCc3cc(OC)no3)CC2)c1`, the AC40 was 1.31 µM.

With `O=C(Nc1sc2c(c1C(=O)O)CCC2)c1cccs1`, the AC40 is 9.16 µM.

As to `COc1ccc(OC)c(N(CC(=O)N2CCC(C)CC2)S(=O)(=O)c2ccccc2)c1`, the AC40 was 4.36 µM.

As to `CCOc1ccc(C)cc1S(=O)(=O)NC1CCCCC1`, the AC40 was 0.575 µM.

With `COc1ccc(NC(=O)CCC(=O)c2cccs2)cc1S(=O)(=O)Nc1ccc(Cl)cc1`, the AC40 is 0.884 µM.

Take `COc1ccc(S(=O)(=O)N(C)C[C@H]2Oc3ccc(NC(=O)Nc4ccc(F)cc4)cc3C(=O)N([C@H](C)CO)C[C@H]2C)cc1`: the AC40 is 0.631 µM.

`COc1ccc(S(=O)(=O)Nc2cc3c4c(c2)CCC(=O)N4CCC3)cc1C`: the AC40 is 6.67 µM.

Consider `Cc1ccc(NC(=O)Cc2cn(C)c3ccccc23)cc1F`, for which the AC40 is 7.09 µM.

For the molecule `C[C@H](CO)N1C[C@H](C)[C@H](CN(C)Cc2ccc(C(=O)Nc3ccccc3N)cc2)Oc2c(NC(=O)Nc3ccccc3)cccc2C1=O`, the AC40 is 30.8 µM.

For `CCCC#Cc1cnc2c(c1)C(=O)N([C@H](C)CO)C[C@H](C)[C@H](CN(C)Cc1ccccc1F)O2`, the AC40 was 13.1 µM.

Turning to `Cc1ccc(C(C)(C)C)cc1S(=O)(=O)Nc1cccc(S(=O)(=O)NC2=NCCC2)c1`, the AC40 was 5.86 µM.

For the molecule `COc1ccc(NS(=O)(=O)c2ccc(Cl)c(N)c2)cc1Br`, the AC40 is 3.88 µM.

Regarding `COC(=O)c1[nH]c2ccccc2c1NC(=O)CN1CCCc2ccccc21`, the AC40 was 21.5 µM.

Consider `Cc1c(C(=O)N2CCCCC2)c(S(=O)(=O)Nc2cccc(Br)c2)c(C)n1C`, for which the AC40 was 1.44 µM.

On to `C[C@@H]1CN([C@H](C)CO)C(=O)Cc2cc(N(C)C)ccc2O[C@@H]1CN(C)Cc1ccc(C(=O)Nc2ccccc2N)cc1`, for which the AC40 was 11.1 µM.

Regarding `Cc1ccc(S(=O)(=O)N(C)C[C@H]2Oc3ccc(NC(=O)Nc4ccc(C(F)(F)F)cc4)cc3C(=O)N([C@H](C)CO)C[C@H]2C)cc1`, the AC40 is 5.41 µM.

Turning to `O=C(CSc1nnc(-c2cc3ccccc3cc2O)n1Cc1ccco1)c1ccc(F)cc1`, the AC40 was 5.74 µM.

For the molecule `CCOc1ccc(Br)cc1S(=O)(=O)NCc1ccncc1`, the AC40 is 1.9 µM.

Turning to `C[C@H](CO)N1C[C@H](C)[C@@H](CN(C)Cc2ccccc2)Oc2c(NC(=O)C3CC3)cccc2C1=O`, the AC40 is 6.79 µM.

`COc1ccccc1CNS(=O)(=O)c1ccc(-c2cc(C)no2)cc1`: the AC40 was 10.8 µM.

On to `FC(F)Sc1ccc(NC(=S)NC2CCCCC2)cc1`, for which the AC40 is 4.16 µM.

Take `C[C@@H]1CN([C@H](C)CO)C(=O)c2cccc(NC(=O)c3nc4ccccc4s3)c2O[C@@H]1CN(C)Cc1ccc(C(=O)Nc2ccccc2N)cc1`: the AC40 is 17.7 µM.

`CCOc1ccc2cc(C3CC(c4ccco4)=NN3S(C)(=O)=O)c(=O)[nH]c2c1` (configuration not stated): the AC40 was 7.29 µM.

In the case of `COc1cc(S(=O)(=O)N2CCCCCC2)c(OC)cc1Br`, the AC40 was 1.74 µM.

In the case of `O=C(c1ccccc1F)N1CC[C@@H]2[C@@H](CO)Nc3ccc(-c4cccc(F)c4)cc3[C@@H]21`, the AC40 was 1.29 µM.

Consider `OC(c1ccc(Cl)c(F)c1)c1ncc(-c2ccccc2F)[nH]1` (configuration not stated), for which the AC40 was 2.04 µM.

For the molecule `CCN(CC)c1ccc(N)cc1S(=O)(=O)Nc1ccc(OC)cc1`, the AC40 was 27.3 µM.

`O=C(NCC1CCCO1)C(c1cccs1)N(Cc1cccs1)C(=O)Cn1nnc(-c2cccs2)n1` (configuration not stated): the AC40 was 13.5 µM.

For `Cc1cc(S(=O)(=O)Nc2cc(C)c(O)c(C)c2)c(C)s1`, the AC40 is 24.9 µM.

For `CCc1cccc2c(C(=O)CN3C(=O)NC4(CCCCC4)C3=O)c[nH]c12`, the AC40 was 6.01 µM.

Regarding `COc1cc(C)c(C(C)C)cc1S(=O)(=O)NC1CC(C)(C)NC(C)(C)C1`, the AC40 is 0.59 µM.

As for `O=S(=O)(c1ccccc1F)N1CC[C@@H]2[C@@H](CO)Nc3ccc(-c4ccc(F)cc4)cc3[C@@H]21`, the AC40 is 5.7 µM.

Take `Cc1ccc(S(=O)(=O)Nc2ccc3c(c2)CC(=O)N([C@H](C)CO)C[C@H](C)[C@H](CN(C)Cc2ccc(C(=O)Nc4ccccc4N)cc2)O3)cc1`: the AC40 was 6.79 µM.

As for `O=S(=O)(NCCc1ccccc1)c1cccc(S(=O)(=O)N2CCOCC2)c1`, the AC40 is 6 µM.

With `C[C@@H]1CN([C@@H](C)CO)C(=O)c2cccc(NC(=O)C3CC3)c2O[C@@H]1CN(C)Cc1ccc(C(=O)Nc2ccccc2N)cc1`, the AC40 is 3.72 µM.

As for `COc1ccc(S(=O)(=O)NCc2ccccn2)cc1NC(=O)c1ccc(C)cc1`, the AC40 was 7.81 µM.

Regarding `CC(=O)c1ccc(NS(=O)(=O)c2c(C)cc(C)cc2C)cc1`, the AC40 is 1.82 µM.

For `CSc1cccc(NS(=O)(=O)c2cc(Br)cnc2N)c1`, the AC40 was 2.5 µM.

With `N#CC1c2ccccc2-c2ccccc2N1C(=O)c1ccccc1` (configuration not stated), the AC40 is 8.39 µM.

`COc1cc(C)c(S(=O)(=O)Nc2ccccc2F)cc1C`: the AC40 was 3.14 µM.

Turning to `CCCC(=O)Nc1nc2ccc(S(=O)(=O)N3CCCCC3)cc2s1`, the AC40 was 8.84 µM.

In the case of `Cc1ccc(NS(=O)(=O)c2csc(C(N)=O)c2)cc1C`, the AC40 is 3.14 µM.

Consider `Cc1ccc(C)c(S(=O)(=O)NC2CCS(=O)(=O)C2)c1` (configuration not stated), for which the AC40 was 8.66 µM.

`Cc1cc(C)c(S(=O)(=O)N2CCN=C2c2ccccc2)cc1C`: the AC40 was 10.3 µM.

`C/C(=N\Nc1ccccn1)c1ccc(S(=O)(=O)NCc2ccco2)cc1`: the AC40 is 6.97 µM.

With `CCn1nccc1C(=O)Nc1ccc(S(=O)(=O)NC23CC4CC(CC(C4)C2)C3)cc1`, the AC40 was 2.24 µM.

Take `COc1ccc(NC(=O)Nc2cccc3c2O[C@H](CN(C)Cc2ccc4c(c2)OCO4)[C@@H](C)CN([C@H](C)CO)C3=O)cc1`: the AC40 was 22.8 µM.

Take `CN1c2ccc(-c3ccc(F)cc3)cc2[C@H]2[C@H](CCN2S(=O)(=O)c2cccc(F)c2)[C@H]1CO`: the AC40 was 8.83 µM.

With `COc1cc(NS(=O)(=O)c2csc(C(N)=O)c2)cc(OC)c1`, the AC40 is 1.51 µM.

As for `Cc1ccc(C)c(S(=O)(=O)NCCCc2ccccc2)c1`, the AC40 was 3.15 µM.

`CC(C)CNS(=O)(=O)c1ccc(OCC(=O)Nc2ccc3c(c2)OCO3)c(Cl)c1`: the AC40 was 8.36 µM.

Turning to `CN(C)S(=O)(=O)c1ccc(NS(=O)(=O)/C=C/c2ccccc2)cc1`, the AC40 is 2.27 µM.

In the case of `CCOc1ccc(Br)cc1S(=O)(=O)Nc1cccc(S(=O)(=O)N(CC)CC)c1`, the AC40 was 7.75 µM.

Regarding `COc1cc(NS(=O)(=O)c2cc3c(cc2C)NC(=O)CO3)cc(OC)c1`, the AC40 was 4.02 µM.

As to `C[C@H](CO)N1C[C@H](C)[C@@H](CN(C)Cc2ccc3c(c2)OCO3)Oc2c(NS(=O)(=O)c3ccc(Cl)cc3)cccc2C1=O`, the AC40 is 24.2 µM.

Turning to `Clc1cccc(Cl)c1CSc1nnc(CN2CCOCC2)n1-c1ccccc1`, the AC40 was 10.4 µM.

As to `C[C@H](CO)N1C[C@H](C)[C@@H](CN(C)C(=O)Nc2ccc(C(F)(F)F)cc2)Oc2c(NC(=O)C3CCOCC3)cccc2C1=O`, the AC40 is 29.8 µM.
